Reference: ChEMBL document CHEMBL1155045, “Apoptosis-inducing galactolipids from a cultured marine diatom, Phaeodactylum tricornutum” (2008)

Legend:
Assay type in all cases: functional
[1] = Induction of apoptosis in mouse W2 cells assessed as cell death at 64 uM after 48 hrs by MTT assay
[2] = Effect on apoptosis-inducing gene deffective mouse D3 cells assessed as cell growth at 64 uM after 48 hrs by MTT assay; conditions: D3, 48 h, read-out: Activity
[3] = Induction of apoptosis in mouse W2 cells assessed as cell death at 52 uM after 48 hrs by MTT assay
[4] = Effect on apoptosis-inducing gene deffective mouse D3 cells assessed as cell growth at 52 uM after 48 hrs by MTT assay; conditions: D3, 48 h, read-out: Activity

Row | Structure (SMILES) | Activity [1] [%] | growth at 64 µM [2] [%] | Activity [3] [%] | growth at 52 µM [4] [%]
1 | CC/C=C\C/C=C\C/C=C\C/C=C\C/C=C\CC(=O)OC[C@H](CO[C@@H]1O[C@H](CO)[C@H](O)[C@H](O)C1O)OC(=O)CCCC/C=C\C/C=C\C/C=C\C/C=C\CC (single isomer, unassigned) | 18 | 14 | – | –
2 | CC/C=C\C/C=C\C/C=C\C/C=C\C/C=C\CCCC(=O)OC[C@H](CO[C@@H]1O[C@H](CO)[C@H](O)[C@H](O)C1O)OC(=O)CCCC/C=C\C/C=C\C/C=C\CCC (single isomer, unassigned) | – | – | 18 | 10
